From ChEMBL document CHEMBL1138597, “Synthesis and biological evaluation of ((4-keto)-phenoxy)methyl biphenyl-4-sulfonamides: a class of potent aggrecanase-1 inhibitors” (Bioorg Med Chem Lett, 2009) come the findings set out here.

pIC50: −log10 of the molar value. The source made the active and inactive calls. Where only a bound is given, the exact number is not on record here.

Data set [1] concerns the target T1, A disintegrin and metalloproteinase with thrombospondin motifs 4 (Homo sapiens, UniProt O75173).
T1 sequence (O75173 whole entry): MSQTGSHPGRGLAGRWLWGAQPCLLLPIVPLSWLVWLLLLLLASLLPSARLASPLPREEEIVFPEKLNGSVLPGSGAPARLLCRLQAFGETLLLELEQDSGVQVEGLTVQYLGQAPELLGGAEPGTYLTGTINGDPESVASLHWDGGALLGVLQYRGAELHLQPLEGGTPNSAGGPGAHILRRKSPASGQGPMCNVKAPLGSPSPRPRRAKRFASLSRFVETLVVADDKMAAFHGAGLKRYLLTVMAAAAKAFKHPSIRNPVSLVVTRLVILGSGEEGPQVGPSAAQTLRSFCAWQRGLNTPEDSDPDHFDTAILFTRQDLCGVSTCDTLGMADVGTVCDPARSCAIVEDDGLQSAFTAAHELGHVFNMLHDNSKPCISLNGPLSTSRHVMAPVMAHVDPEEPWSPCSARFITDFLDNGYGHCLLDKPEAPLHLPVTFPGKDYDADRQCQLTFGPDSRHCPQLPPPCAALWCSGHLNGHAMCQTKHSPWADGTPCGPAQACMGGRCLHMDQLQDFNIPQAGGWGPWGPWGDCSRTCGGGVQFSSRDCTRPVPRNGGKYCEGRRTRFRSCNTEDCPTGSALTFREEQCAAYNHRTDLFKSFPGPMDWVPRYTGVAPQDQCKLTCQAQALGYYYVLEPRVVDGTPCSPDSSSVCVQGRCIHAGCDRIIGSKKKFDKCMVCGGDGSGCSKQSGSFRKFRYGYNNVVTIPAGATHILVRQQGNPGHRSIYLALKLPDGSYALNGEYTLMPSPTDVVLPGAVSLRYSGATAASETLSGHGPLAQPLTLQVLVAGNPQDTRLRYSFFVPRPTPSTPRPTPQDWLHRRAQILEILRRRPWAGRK
Put plainly: Inhibition of aggrecanase1.

In data set [2] the target is T2, A disintegrin and metalloproteinase with thrombospondin motifs 4 (Bos taurus) (UniProt Q9TT93).
T2 sequence (whole entry): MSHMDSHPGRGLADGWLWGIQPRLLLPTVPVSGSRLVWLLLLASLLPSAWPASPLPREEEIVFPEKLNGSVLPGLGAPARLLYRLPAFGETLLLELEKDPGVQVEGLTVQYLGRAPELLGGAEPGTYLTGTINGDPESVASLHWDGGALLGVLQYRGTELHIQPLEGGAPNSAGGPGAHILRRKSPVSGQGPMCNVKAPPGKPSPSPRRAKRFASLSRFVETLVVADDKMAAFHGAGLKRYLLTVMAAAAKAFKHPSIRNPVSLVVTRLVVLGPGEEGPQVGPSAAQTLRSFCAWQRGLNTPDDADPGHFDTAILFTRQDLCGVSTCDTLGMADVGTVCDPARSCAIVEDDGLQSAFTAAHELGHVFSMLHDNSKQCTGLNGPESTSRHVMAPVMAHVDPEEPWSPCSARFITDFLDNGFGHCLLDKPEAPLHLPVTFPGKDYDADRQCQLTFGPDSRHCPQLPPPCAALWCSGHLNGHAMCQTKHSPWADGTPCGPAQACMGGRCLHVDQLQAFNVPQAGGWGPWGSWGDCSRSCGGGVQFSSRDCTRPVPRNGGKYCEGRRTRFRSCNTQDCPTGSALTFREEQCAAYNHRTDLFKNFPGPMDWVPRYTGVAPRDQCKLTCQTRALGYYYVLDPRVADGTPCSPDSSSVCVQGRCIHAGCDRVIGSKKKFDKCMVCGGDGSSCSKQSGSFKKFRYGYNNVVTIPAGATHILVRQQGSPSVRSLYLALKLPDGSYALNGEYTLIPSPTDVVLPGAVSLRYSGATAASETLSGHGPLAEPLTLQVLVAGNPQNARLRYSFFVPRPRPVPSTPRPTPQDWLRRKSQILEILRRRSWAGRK
Put plainly: Inhibition of IL1-induced aggrecanase activity in bovine cartilage explant assessed as release of degraded extracellular matrix aggrecan.

Data set [3] is described as follows: Clearance in Sprague-Dawley rat at 2 mg/kg, iv or 25 mg/kg, po. To be noted: in vivo. It is filed as ADME, organism-based.
The target of a further data set is T3, Interstitial collagenase (Homo sapiens, UniProt P03956).
T3 sequence (P03956 whole entry): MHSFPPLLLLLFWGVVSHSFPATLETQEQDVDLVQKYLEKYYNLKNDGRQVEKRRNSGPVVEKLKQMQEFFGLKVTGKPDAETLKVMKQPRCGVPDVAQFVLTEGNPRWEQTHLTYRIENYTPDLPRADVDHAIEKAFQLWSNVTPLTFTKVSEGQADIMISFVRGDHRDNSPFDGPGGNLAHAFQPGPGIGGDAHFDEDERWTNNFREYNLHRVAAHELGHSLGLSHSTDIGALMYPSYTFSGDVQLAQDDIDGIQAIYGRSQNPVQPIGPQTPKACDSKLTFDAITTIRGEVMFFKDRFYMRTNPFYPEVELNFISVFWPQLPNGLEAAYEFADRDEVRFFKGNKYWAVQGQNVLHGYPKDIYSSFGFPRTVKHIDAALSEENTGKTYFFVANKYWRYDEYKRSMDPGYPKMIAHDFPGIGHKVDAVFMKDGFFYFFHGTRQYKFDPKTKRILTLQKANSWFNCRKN
Put plainly: Inhibition of MMP1.

Data set [4] can be described thus: Cmax in Sprague-Dawley rat at 2 mg/kg, iv or 25 mg/kg, po. It is filed as ADME, organism-based. As to conditions: in vivo.
A short description of data set [5]: Oral bioavailability in Sprague-Dawley rat at 25 mg/kg. The class given is ADME, organism-based. As to conditions: in vivo.
In data set [6] the target is 72 kDa type IV collagenase (Homo sapiens, UniProt P08253). Put plainly: Inhibition of MMP2.
72 kDa type IV collagenase, sequence (P08253 whole entry): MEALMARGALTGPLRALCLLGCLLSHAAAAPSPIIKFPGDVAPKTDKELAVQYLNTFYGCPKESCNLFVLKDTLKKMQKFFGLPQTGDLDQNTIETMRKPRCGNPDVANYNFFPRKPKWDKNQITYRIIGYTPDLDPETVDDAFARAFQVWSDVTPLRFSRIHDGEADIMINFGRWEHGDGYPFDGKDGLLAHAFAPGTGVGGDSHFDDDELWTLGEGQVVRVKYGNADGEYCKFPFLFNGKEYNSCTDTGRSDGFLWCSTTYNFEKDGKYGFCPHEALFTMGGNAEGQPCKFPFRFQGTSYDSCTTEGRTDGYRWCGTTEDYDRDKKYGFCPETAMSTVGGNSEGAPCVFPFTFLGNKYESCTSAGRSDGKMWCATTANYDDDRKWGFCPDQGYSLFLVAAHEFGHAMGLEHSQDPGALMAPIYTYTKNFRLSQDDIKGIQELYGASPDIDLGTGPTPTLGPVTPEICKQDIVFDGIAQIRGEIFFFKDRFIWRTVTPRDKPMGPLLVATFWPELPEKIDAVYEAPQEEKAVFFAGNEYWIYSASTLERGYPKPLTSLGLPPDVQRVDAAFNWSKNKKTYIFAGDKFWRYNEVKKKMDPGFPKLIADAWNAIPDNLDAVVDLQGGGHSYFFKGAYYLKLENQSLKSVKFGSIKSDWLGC
Data set [7] has as its target T2, A disintegrin and metalloproteinase with thrombospondin motifs 4 (Bos taurus). Put plainly: Inhibition of IL1-induced aggrecanase activity in bovine cartilage explant assessed as inhibition of proteoglycan degradation at 10 ug/ml after 3 days.
The nature of data set [8]: Half life in Sprague-Dawley rat at 2 mg/kg, iv or 25 mg/kg, po. The class given is ADME, organism-based. As to conditions: in vivo.
The target of the next data set is Collagenase 3 (Homo sapiens, UniProt P45452). Put plainly: Inhibition of MMP13.
The target in data set [9] is Matrix metalloproteinase-14 (Homo sapiens, UniProt P50281). Put plainly: Inhibition of MMP14.
Data set [10] has as its target T4, A disintegrin and metalloproteinase with thrombospondin motifs 5 (Homo sapiens) (UniProt Q9UNA0).
T4 sequence (whole entry): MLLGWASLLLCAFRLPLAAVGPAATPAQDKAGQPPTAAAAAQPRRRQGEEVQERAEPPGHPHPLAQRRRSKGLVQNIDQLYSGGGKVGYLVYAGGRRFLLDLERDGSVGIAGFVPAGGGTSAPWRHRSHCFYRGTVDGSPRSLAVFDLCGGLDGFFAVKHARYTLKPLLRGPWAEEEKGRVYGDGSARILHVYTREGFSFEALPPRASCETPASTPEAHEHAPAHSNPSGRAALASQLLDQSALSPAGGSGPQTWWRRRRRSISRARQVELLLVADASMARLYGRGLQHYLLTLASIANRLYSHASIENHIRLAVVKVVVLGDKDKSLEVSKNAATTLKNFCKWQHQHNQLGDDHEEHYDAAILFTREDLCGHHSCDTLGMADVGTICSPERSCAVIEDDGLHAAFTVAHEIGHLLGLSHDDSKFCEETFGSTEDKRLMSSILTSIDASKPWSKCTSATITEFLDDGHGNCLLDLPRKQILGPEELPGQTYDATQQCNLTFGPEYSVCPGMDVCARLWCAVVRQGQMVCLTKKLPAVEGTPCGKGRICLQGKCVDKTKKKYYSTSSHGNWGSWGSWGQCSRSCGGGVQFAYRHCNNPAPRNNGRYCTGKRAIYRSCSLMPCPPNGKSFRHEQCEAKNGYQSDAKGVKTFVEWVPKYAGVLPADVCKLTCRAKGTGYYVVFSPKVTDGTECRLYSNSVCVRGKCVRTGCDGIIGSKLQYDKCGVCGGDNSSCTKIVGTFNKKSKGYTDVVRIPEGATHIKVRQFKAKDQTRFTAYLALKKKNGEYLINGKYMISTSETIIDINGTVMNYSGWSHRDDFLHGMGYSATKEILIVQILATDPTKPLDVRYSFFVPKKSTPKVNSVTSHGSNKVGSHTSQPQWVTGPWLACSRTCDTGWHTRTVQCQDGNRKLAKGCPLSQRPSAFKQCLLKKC
Put plainly: Inhibition of aggrecanase2 at 2.5 uM.

Data set [11] has as its target T5, A disintegrin and metalloproteinase with thrombospondin motifs 5 (Homo sapiens, UniProt Q9UNA0).
T5 sequence (Q9UNA0 whole entry): T4 sequence (whole entry)
Put plainly: Inhibition of aggrecanase2.

As usually defined, the pIC50 is the negative decadic logarithm of the IC50, by convention in mol/L. A high value points to a low IC50. Consider `CC(C)[C@@H](NS(=O)(=O)c1ccc(-c2ccc(COc3ccc(C(=O)N4CCOCC4)cc3)cc2)cc1)C(=O)O`, for which, in data set [1], the pIC50 was 5.28.
Same read-out and setting: as for `CC(C)[C@@H](NS(=O)(=O)c1ccc(-c2ccc(COc3ccc4ccccc4n3)cc2)cc1)C(=O)O`, the figure is 6.40; as for `CC(C)[C@@H](NS(=O)(=O)c1ccc(-c2ccc(COc3ccc4c(c3)CCCC4=O)cc2)cc1F)C(=O)O`, 6.74.
One may read the Cmax as the maximum level reached in the sampled fluid or tissue. In general, bioavailability refers to the share of a dose that reaches the circulation, judged against a reference dose that is usually intravenous. Low values mean poor availability, high ones good availability. Usually inhibition stands for the relative decrease from the control value, in per cent. A word on the half-life: it is the time needed for the level to fall by half in the phase considered. The low end stands for fast loss, the high end for slow loss. As to `CC(C)[C@@H](NS(=O)(=O)c1ccc(-c2ccc(COc3ccc(C(=O)C4CCCCC4)cc3)cc2)cc1)C(=O)O`, in data set [2], the result was Active. Besides, the clearance in data set [3] worked out at 6.9 mL/min/kg. Further, the pIC50 is 7.05 in data set [1]; below 4.00 on Interstitial collagenase; 8.28 in [6]; 7.82 on Collagenase 3; 5.78 in [9]. The same compound showed a Cmax in [4] of 694 ng/mL. In addition, the bioavailability in data set [5] turned out to be 13%. In addition, the inhibition in [7] was 69%. The compound further had a half-life in data set [8] of 3.07 h.
`CC(C)[C@@H](NS(=O)(=O)c1ccc(-c2ccc(COc3ccc(C(=O)c4ccccc4)cc3)cc2)cc1)C(=O)O` showed a pIC50 in data set [1] of 6.64.
The compound `CC(C)[C@@H](NS(=O)(=O)c1ccc(-c2ccc(COc3ccc4c(c3)CCCC4=O)cc2)cc1OC(F)(F)F)C(=O)O` had a pIC50 in data set [1] of 4.70.
In the case of `CC(C)C(=O)c1ccc(OCc2ccc(-c3ccc(S(=O)(=O)N[C@@H](C(=O)O)C(C)C)cc3)cc2)cc1`, the outcome in data set [2] and in data set [7] was Active. The pIC50 against Interstitial collagenase was below 4.00; in data set [6], 8.89; at Collagenase 3, 8.96; in data set [9], 6.04.
As to `CC(C)[C@@H](NS(=O)(=O)c1ccc(-c2ccc(COc3ccc4c(c3)CCCC4=O)cc2)cc1C(F)(F)F)C(=O)O`, the pIC50 in data set [1] was 5.49.
Still for that read-out and setting: as for `CC(C)[C@@H](NS(=O)(=O)c1ccc(-c2ccc(COc3cccc(N(C)C)c3)cc2)cc1)C(=O)O`, the figure is 5.31.
In the case of `CC(C)[C@@H](NS(=O)(=O)c1ccc(-c2ccc(COc3ccc(C(=O)c4ccc(F)cc4)cc3)cc2)cc1)C(=O)O`, the outcome in [2] was Active. The pIC50 is 7.10 in data set [1]; below 4.00 at Interstitial collagenase; 8.44 in [6]; 8.20 at Collagenase 3; 6.66 in [9]. Further, the figures for the inhibition in data set [10] and in data set [7] were 55% and 71%, respectively.
In turn, `Cc1c(CC(=O)Oc2ccc(-c3ccc(S(=O)(=O)N[C@@H](C(=O)O)C(C)C)cc3)cc2)oc2ccccc12` had a pIC50 in data set [1] of 6.15.
Still for that read-out and setting: as for `CC(C)[C@@H](NS(=O)(=O)c1ccc(-c2ccc(COc3ccc(NC(=O)OC(C)(C)C)cc3)cc2)cc1)C(=O)O`, the figure is 6.23; as for `CC(=O)c1ccc(OCc2ccc(-c3ccc(S(=O)(=O)N[C@@H](C(=O)O)C(C)C)cc3)cc2)cc1`, 6.37.
In turn, `CC(C)[C@@H](NS(=O)(=O)c1ccc(-c2ccc(COc3cc4cccc(C(F)(F)F)c4nc3C(F)(F)F)cc2)cc1)C(=O)O` had a pIC50 in data set [1] of 6.70.
Still for that read-out and setting: as for `Cc1cccc(Oc2ccc(OCc3ccc(-c4ccc(S(=O)(=O)N[C@@H](C(=O)O)C(C)C)cc4)cc3)cc2)n1`, the figure is 6.14.
Turning to `CC(C)[C@@H](NS(=O)(=O)c1ccc(-c2ccc(COc3ccc4c(c3)CCCC4=O)cc2)cc1)C(=O)O`, the result in [2] was Active. Also, the pIC50 in data set [1] is 6.64; at Interstitial collagenase, below 4.00; in [6], 8.20; against Collagenase 3, 8.66; in data set [9], 5.88; in data set [11], 5.18. In [7], the inhibition is 53%.
As to `CC(C)[C@@H](NS(=O)(=O)c1ccc(-c2ccc(COc3ccc(CN4CCOCC4)cc3)cc2)cc1)C(=O)O`, the pIC50 in data set [1] is 5.22.
